# Laboratory results published in US10695337B2, “Piperidin-4-yl azetidine derivatives as JAK1 inhibitors” (Incyte Corporation, priority 2010, dated 2020).
# Target: human JAK1 (a.a. 837-1142)
# Assay: In vitro JAK kinase assay (HTRF, phosphorylation of a biotinylated peptide), JAK1
# Assay type: biochemical
# Settings: measured at 1 mM ATP; JAK2 IC50 / JAK1 IC50
# In short: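 N-terminally His-tagged catalytic domains, baculovirus-expressed in insect cells and purified, were used as enzyme. Reactions ran 1 hr at room temperature and were stopped with a mix of 45 mM EDTA, 300 nM SA-APC and 6 nM Eu-Py20. The HTRF signal was read after 40 min of antibody binding.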
row,Structure (SMILES),IC50 Ratio JAK2/JAK1
1,"N#CCC1(n2cc(-c3ncnc4[nH]ccc34)cn2)CN(C2CCN(C(=O)Nc3ccc(C(F)(F)F)cc3)CC2)C1 [Example 167, 4-{3-(cyanomethyl)-3-[4-(7H-pyrrolo[2,3-d]pyrimidin-4-yl)-1H-pyrazol-1-yl]azetidin-1-yl}-N-[4-(trifluoromethyl)phenyl]piperidine-1-carboxamide]",2.0
2,"Cc1ccc(Cl)cc1NC(=O)N1CCC(N2CC(CC#N)(n3cc(-c4ncnc5[nH]ccc45)cn3)C2)CC1 [Example 168, N-(5-chloro-2-methylphenyl)-4-{3-(cyanomethyl)-3-[4-(7H-pyrrolo[2,3-d]pyrimidin-4-yl)-1H-pyrazol-1-yl]azetidin-1-yl}piperidine-1-carboxamide]",2.6
3,"N#CCC1(n2cc(-c3ncnc4[nH]ccc34)cn2)CN(C2CCN(C(=O)Nc3ccccc3F)CC2)C1 [Example 169, 4-{3-(cyanomethyl)-3-[4-(7H-pyrrolo[2,3-d]pyrimidin-4-yl)-1H-pyrazol-1-yl]azetidin-1-yl}-N-(2-fluorophenyl)piperidine-1-carboxamide]",5.5
4,"N#CCC1(n2cc(-c3ncnc4[nH]ccc34)cn2)CN(C2CCN(C(=O)Nc3cccc(C(F)(F)F)c3F)CC2)C1 [Example 170, 4-{3-(cyanomethyl)-3-[4-(7H-pyrrolo[2,3-d]pyrimidin-4-yl)-1H-pyrazol-1-yl]azetidin-1-yl}-N-[2-fluoro-3-(trifluoromethyl)phenyl]piperidine-1-carboxamide]",6.9
5,"N#CCC1(n2cc(-c3ncnc4[nH]ccc34)cn2)CN(C2CCN(C(=O)Nc3ccc(F)cc3F)CC2)C1 [Example 171, 4-{3-(cyanomethyl)-3-[4-(7H-pyrrolo[2,3-d]pyrimidin-4-yl)-1H-pyrazol-1-yl]azetidin-1-yl}-N-(2,4-difluorophenyl) piperidine-1-carboxamide]",7.5
6,"N#CCC1(n2cc(-c3ncnc4[nH]ccc34)cn2)CN(C2CCN(C(=O)Nc3cc(F)cc(F)c3F)CC2)C1 [Example 173, 4-{3-(cyanomethyl)-3-[4-(7H-pyrrolo[2,3-d]pyrimidin-4-yl)-1H-pyrazol-1-yl]azetidin-1-yl}-N-(2,3,5-trifluorophenyl)piperidine-1-carboxamide]",5.7
7,"N#CCC1(n2cc(-c3ncnc4[nH]ccc34)cn2)CN(C2CCN(C(=O)Nc3cc(F)ccc3F)CC2)C1 [Example 174, 4-{3-(cyanomethyl)-3-[4-(7H-pyrrolo[2,3-d]pyrimidin-4-yl)-1H-pyrazol-1-yl]azetidin-1-yl}-N-(2,5-difluorophenyl) piperidine-1-carboxamide]",7.1
8,"N#CCC1(n2cc(-c3ncnc4[nH]ccc34)cn2)CN(C2CCN(C(=O)Nc3cc(F)cc(F)c3)CC2)C1 [Example 175, 4-{3-(cyanomethyl)-3-[4-(7H-pyrrolo[2,3-d]pyrimidin-4-yl)-1H-pyrazol-1-yl]azetidin-1-yl}-N-(3,5-difluorophenyl) piperidine-1-carboxamide]",3.6
9,"N#CCC1(n2cc(-c3ncnc4[nH]ccc34)cn2)CN(C2CCN(C(=O)Nc3ccc(F)c(F)c3)CC2)C1 [Example 176, 4-{3-(cyanomethyl)-3-[4-(7H-pyrrolo[2,3-d]pyrimidin-4-yl)-1H-pyrazol-1-yl]azetidin-1-yl}-N-(3,4-difluorophenyl) piperidine-1-carboxamide]",5.1
10,"N#CCC1(n2cc(-c3ncnc4[nH]ccc34)cn2)CN(C2CCN(C(=O)Nc3cccc(Cl)c3F)CC2)C1 [Example 177, N-(3-chloro-2-fluorophenyl)-4-{3-(cyanomethyl)-3-[4-(7H-pyrrolo[2,3-d]pyrimidin-4-yl)-1H-pyrazol-1-yl]azetidin-1-yl}piperidine-1-carboxamide]",8.5
11,"N#CCC1(n2cc(-c3ncnc4[nH]ccc34)cn2)CN(C2CCN(C(=O)Nc3ccc(Cl)cc3F)CC2)C1 [Example 178, N-(4-chloro-2-fluorophenyl)-4-{3-(cyanomethyl)-3-[4-(7H-pyrrolo[2,3-d]pyrimidin-4-yl)-1H-pyrazol-1-yl]azetidin-1-yl}piperidine-1-carboxamide]",6.5
